Measurements from ChEMBL document CHEMBL4715868, “Neurotrophic isoindolinones from the fruiting bodies of Hericium erinaceus” (2021).
Activity calls are given as the source filed them. The rule behind the calls is not given here.

How the values were obtained:
[1] = Neurotrophic activity in […] N2a cells assessed as increase in NGF-mediated neurite outgrowth at 10 uM incubated for 24 hrs by cell imaging analysis relative to control; format: functional
C6 [2] = experiment: Upregulation of BDNF production in rat C6 cells co-cultured with N2a cells at 10 to 50 uM incubated for 24 hrs followed by cell transfer to N2a cells by Western blot analysis; format: functional, cell-based; conditions: dose 10-50 µM
C6 [3] = experiment: Upregulation of Syp production in rat C6 cells co-cultured with N2a cells at 10 to 50 uM incubated for 24 hrs followed by cell transfer to N2a cells by Western blot analysis; format: functional, cell-based; conditions: dose 10-50 µM
C6 [4] = experiment: Upregulation of NGF production in rat C6 cells co-cultured with N2a cells at 10 to 50 uM incubated for 24 hrs followed by cell transfer to N2a cells by Western blot analysis; format: functional, cell-based; conditions: dose 10-50 µM
C6 [5] = experiment: Neurotrophic activity in rat C6 cells assessed as NGF production at 10 to 50 uM incubated for 24 hrs by ELISA; format: functional, cell-based; conditions: dose 10-50 µM
[6] = Neurotrophic activity in […] N2a cells assessed as increase in NGF-mediated neurite outgrowth at 25 uM incubated for 24 hrs by cell imaging analysis relative to control; format: functional

SMILES | Activity [1] | Activity (C6 [2]) | Activity (C6 [3]) | Activity (C6 [4]) | Activity (C6 [5]) | Activity [6]
CC1=C(/C=C/C(C)=C/C=C/C(C)=C/C(=O)O)C(C)(C)CCC1 [TRETINOIN] | 112.08% |  |  |  |  | 
COc1cc2c(c(O)c1C/C=C(\C)CC/C=C(\C)C(=O)O)COC2=O |  | Active | inactive | Active | Active | 
COc1cc2c(c(O)c1C/C=C(\C)CCC=C(C)C)C(=O)N(CCc1ccccc1)C2 |  |  | inactive | Active | Active | 116.82%
COc1cc2c(c(O)c1CCO)CN(CCc1ccccc1)C2=O |  | Active | inactive | Active | Dose-dependent effect | 122.82%
